# Target: Histamine H3 receptor (Rattus norvegicus, UniProt Q9QYN8)
# Assay: Binding affinity to rat H3 receptor
# Conditions: not given
# Sequence of Histamine H3 receptor (Rattus norvegicus, UniProt Q9QYN8) (Q9QYN8 whole entry): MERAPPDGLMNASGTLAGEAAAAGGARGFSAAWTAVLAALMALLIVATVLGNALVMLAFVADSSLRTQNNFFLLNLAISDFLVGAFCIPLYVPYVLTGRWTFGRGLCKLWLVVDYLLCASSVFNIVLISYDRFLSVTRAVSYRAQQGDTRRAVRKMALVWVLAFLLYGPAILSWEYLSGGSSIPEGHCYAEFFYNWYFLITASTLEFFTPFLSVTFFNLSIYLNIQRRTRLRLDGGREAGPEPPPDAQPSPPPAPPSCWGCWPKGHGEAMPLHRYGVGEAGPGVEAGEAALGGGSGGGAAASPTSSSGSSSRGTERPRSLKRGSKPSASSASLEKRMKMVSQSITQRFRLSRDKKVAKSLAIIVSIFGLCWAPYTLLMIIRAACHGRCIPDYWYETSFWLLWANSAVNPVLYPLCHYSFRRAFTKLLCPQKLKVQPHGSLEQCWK
row,Ki [nM],Compound
1,< 100,C[C@H]1CCCN1CCCOc1ccc(/C(CN2CCCCC2=O)=N/OC(C)(C)C)cc1

# Target: Histamine H3 receptor (Homo sapiens, UniProt Q9Y5N1)
# Assay: Displacement of [3H]N-alpha-Methylhistamine from human recombinant H3 receptor expressed in HEK293 cells by competitive binding assay
# Assay type: cell-based
# Conditions: not given
# Sequence of Histamine H3 receptor (Homo sapiens, UniProt Q9Y5N1) (Q9Y5N1 whole entry): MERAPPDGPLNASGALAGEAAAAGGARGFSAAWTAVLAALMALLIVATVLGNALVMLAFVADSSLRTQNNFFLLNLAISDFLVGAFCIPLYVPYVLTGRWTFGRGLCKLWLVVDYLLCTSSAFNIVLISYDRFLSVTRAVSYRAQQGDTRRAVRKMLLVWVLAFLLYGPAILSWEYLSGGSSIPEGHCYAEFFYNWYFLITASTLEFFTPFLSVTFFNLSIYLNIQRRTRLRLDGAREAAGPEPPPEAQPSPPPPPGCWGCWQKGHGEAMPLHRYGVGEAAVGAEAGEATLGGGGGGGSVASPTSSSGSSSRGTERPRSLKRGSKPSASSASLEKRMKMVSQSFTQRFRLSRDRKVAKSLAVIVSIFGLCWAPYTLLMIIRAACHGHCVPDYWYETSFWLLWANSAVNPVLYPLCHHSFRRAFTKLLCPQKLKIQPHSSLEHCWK
row,IC50 [nM],Compound
1,≤ 50,CCN1CCc2nc(OC3CCN(C4CCC4)CC3)ncc2C1=O

# Same assay, conditions: read-out: Ki
row,Ki [nM],Compound
1,< 25,O=c1cccnn1-c1ccc2nc(N3CC[C@@H](N4CCCCC4)C3)sc2c1

# Same assay, conditions: read-out: pKi (converted)
row,Ki [nM],Compound
1,12.9,O=c1ccn(Cc2ccc(OCCCN3CCCCC3)cc2)c(=O)[nH]1
2,28.8,O=c1cc[nH]c(=O)n1Cc1ccc(OCCCN2CCCCC2)cc1
3,7.08,Cc1cn(Cc2ccc(OCCCN3CCCCC3)cc2)c(=O)[nH]c1=O
4,17.8,Cc1c(C)n(Cc2ccc(OCCCN3CCCCC3)cc2)c(=O)[nH]c1=O
5,50.1,CC(C)(C)OC(=O)n1ccc(=O)n(Cc2ccc(OCCCN3CCCCC3)cc2)c1=O
6,63.1,Cc1c[nH]c(=O)n(Cc2ccc(OCCCN3CCCCC3)cc2)c1=O

# Second part, the molecule before the results:
row,Compound,Ki [nM]
1,O=C(c1ccccc1)n1c(=O)ccn(Cc2ccc(OCCCN3CCCCC3)cc2)c1=O,7.24
2,CC(C)N1CCCN(C(=O)C2CCN(c3ccc(C(F)(F)F)nc3)CC2)CC1,0.126
3,Cc1cn(C(=O)OC(C)(C)C)c(=O)n(Cc2ccc(OCCCN3CCCCC3)cc2)c1=O,46.8
4,Cc1c(C)n(Cc2ccc(OCCCN3CCCCC3)cc2)c(=O)n(C(=O)c2ccccc2)c1=O,34.7
5,O=c1ccn(CCCN2CCCCC2)c(=O)[nH]1,7080
6,Cc1c(C)n(C(=O)OC(C)(C)C)c(=O)n(Cc2ccc(OCCCN3CCCCC3)cc2)c1=O,38
7,O=C(c1ccccc1)n1c(=O)ccn(CCCN2CCCCC2)c1=O,1150
8,Cc1cn(Cc2ccc(OCCCN3CCCCC3)cc2)c(=O)n(C(=O)c2ccccc2)c1=O,31.6

# — ChEMBL document CHEMBL3351512, “Studies on molecular properties prediction and histamine H3 receptor affinities of novel ligands with uracil-based motifs” (Eur J Med Chem, 2014)
